In ChEMBL document CHEMBL1201862, “PubChem BioAssay data set” (2004):
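Grown in 96-well plates, cells were treated for 48 hours with each compound at five concentrations. Insufficient inhibition: endpoint recorded as highest concentration tested. The concentration for 50% growth inhibition is given as GI50.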 The source made the active and inactive calls. Rule as the data show it: active = GI50 up to about 1.1 µM and inactive = higher.

What was measured:
Assay in all cases: NCI tumour cell line growth inhibition, 48 h
[1] = test system: IGROV-1
[2] = test system: SR
[3] = test system: TK-10
[4] = test system: A498
[5] = test system: NCI/ADR-RES
[6] = test system: MDA-MB-231
[7] = test system: OVCAR-8
[8] = test system: UACC-62
[9] = test system: CCRF-CEM
[10] = test system: K562
[11] = test system: MDA-N
[12] = test system: SK-MEL-28
[13] = test system: SW-620
[14] = test system: COLO 205
[15] = test system: SNB-19
[16] = test system: NCI-H522
[17] = test system: MDA-MB-435
[18] = test system: LOX IMVI
[19] = test system: SK-MEL-2
[20] = test system: NCI-H226

SMILES | GI50 [1] | GI50 [2] | GI50 [3] | GI50 [4] | GI50 [5] | GI50 [6] | GI50 [7] | GI50 [8] | GI50 [9] | GI50 [10] | GI50 [11] | GI50 [12] | GI50 [13] | GI50 [14] | GI50 [15] | GI50 [16] | GI50 [17] | GI50 [18] | GI50 [19] | GI50 [20]
CC(=O)c1ccc(N2CCN(C3=C(Cl)C(=O)c4c(O)ccc(O)c4C3=O)CC2)cc1 | 4 µM (inactive) | 2 µM (inactive) | 5.14 µM (inactive) | 17.6 µM (inactive) | 9.1 µM (inactive) | 2.51 µM (inactive) | 3.86 µM (inactive) | 2.74 µM (inactive) | 0.417 µM (active) | 2.09 µM (inactive) | 3.24 µM (inactive) | 5.21 µM (inactive) | 3.02 µM (inactive) | 2.67 µM (inactive) | 20.7 µM (inactive) |  |  |  |  | 
CSCCC(NC(c1ccccc1)c1ccccc1)[PH](=O)O (stereo not drawn) | > 100 µM (inactive) | > 100 µM (inactive) | > 100 µM (inactive) |  | > 100 µM (inactive) |  | > 100 µM (inactive) | > 100 µM (inactive) | > 100 µM (inactive) | > 100 µM (inactive) | 10 µM (inactive) | > 100 µM (inactive) | > 100 µM (inactive) | > 100 µM (inactive) | > 100 µM (inactive) | > 100 µM (inactive) | > 100 µM (inactive) | > 100 µM (inactive) | > 100 µM (inactive) | > 100 µM (inactive)
CCC(O)(c1ccc(OC)cc1)C(c1ccc(OCc2ccccc2)cc1)c1ccc(OCc2ccccc2)cc1 (stereo not drawn) | > 100 µM (inactive) | > 100 µM (inactive) | > 100 µM (inactive) | > 100 µM (inactive) |  |  | > 100 µM (inactive) | > 100 µM (inactive) | > 100 µM (inactive) | > 100 µM (inactive) |  | > 100 µM (inactive) | > 100 µM (inactive) | > 100 µM (inactive) | > 100 µM (inactive) | > 100 µM (inactive) |  | > 100 µM (inactive) | > 100 µM (inactive) | > 100 µM (inactive)
OCC(O)COc1c(Cl)cc(Cl)cc1Cl (stereo not drawn) | > 100 µM (inactive) | 61.7 µM (inactive) | > 100 µM (inactive) | > 100 µM (inactive) |  |  | > 100 µM (inactive) | > 100 µM (inactive) | > 41.8 µM (inactive) | > 46.6 µM (inactive) |  | > 100 µM (inactive) | > 34 µM (inactive) | > 68.7 µM (inactive) | > 100 µM (inactive) | > 100 µM (inactive) |  | > 41.3 µM (inactive) | > 100 µM (inactive) | > 100 µM (inactive)
O=C1CCSSCCC(=O)Nc2ccccc2N1 | > 100 µM (inactive) | > 100 µM (inactive) | > 100 µM (inactive) | > 100 µM (inactive) | > 100 µM (inactive) | > 100 µM (inactive) | > 100 µM (inactive) | > 100 µM (inactive) | > 100 µM (inactive) | 53.5 µM (inactive) |  | > 100 µM (inactive) | > 100 µM (inactive) | > 100 µM (inactive) | > 100 µM (inactive) | > 100 µM (inactive) | > 100 µM (inactive) | > 100 µM (inactive) | > 100 µM (inactive) | > 100 µM (inactive)
CCOC(=O)c1c(-c2ccc(OC)cc2)ccn1C | > 10 µM (inactive) | > 10 µM (inactive) | > 10 µM (inactive) |  | > 10 µM (inactive) | > 10 µM (inactive) | > 10 µM (inactive) | > 10 µM (inactive) | > 10 µM (inactive) | > 10 µM (inactive) |  | 4.54 µM (inactive) | > 10 µM (inactive) | > 10 µM (inactive) | > 10 µM (inactive) | > 9.62 µM (inactive) | > 10 µM (inactive) | 0.00227 µM (active) | > 10 µM (inactive) | > 10 µM (inactive)
C=CCC1(CN(C)C)CC/C(=C\c2ccc3c(c2)OCO3)C1=O (stereo not drawn) | 60.5 µM (inactive) | 41 µM (inactive) | > 100 µM (inactive) | 33.7 µM (inactive) |  |  | 48.4 µM (inactive) | 68.4 µM (inactive) | 29.2 µM (inactive) | 32.7 µM (inactive) |  | > 100 µM (inactive) | 35.1 µM (inactive) | 23.7 µM (inactive) | > 100 µM (inactive) | 17.9 µM (inactive) |  | 97.1 µM (inactive) | > 100 µM (inactive) | > 100 µM (inactive)
COc1ccccc1N1CCN(CCCNC(=O)c2cc(Cl)c(N)c(Cl)c2)CC1 | 71.6 µM (inactive) | 12.7 µM (inactive) | 54.2 µM (inactive) | 42 µM (inactive) | 36.8 µM (inactive) | 22.9 µM (inactive) | 47.5 µM (inactive) | 35 µM (inactive) | 29.7 µM (inactive) |  |  | 32.4 µM (inactive) | 37.5 µM (inactive) | > 10 µM (inactive) | 41.3 µM (inactive) |  | 40.2 µM (inactive) |  |  | 28.4 µM (inactive)
